Data taken from article PMC5017749, “Preclinical Metabolism, Pharmacokinetics and In Vivo Analysis of New Blood-Brain-Barrier Penetrant Fingolimod Analogues: FTY720-C2 and FTY720-Mitoxy” (PLoS ONE, 2016).

Key:
[1] = Metabolic stability (intrinsic clearance) in mouse liver microsomes; assay type: in vitro ADME, mouse (CD-1); conditions: for percent of the remaining compound: after 60 minute incubation
Procedure: (§1) Liver microsomal incubations contained 0.1mg/mL microsomal proteins and 1 μM of FTY720-C2 or FTY720-Mitoxy in 100 mM potassium phosphate buffer (pH 7.4) ± an NADPH regenerating system (3.5 mM glucose 6-phosphate, 1.3 mM NADP^+, and 0.4 units/mL glucose-6-phosphate dehydrogenase). Following incubations, reactions were terminated for analysis after 0, 10, 20, 30, and 60 min by the addition of acetonitrile containing C17 sphingosine (300 ng/mL) as the internal standard. Samples were vigorously mixed and centrifuged at 3,400 rpm for 10 min to pellet precipitated proteins. An aliquot of each supernatant was used for LC/MS analysis, for determination of the remaining FTY720-C2 and FTY720-Mitoxy. Similar incubations were performed using a cocktail solution containing 0.2 μM midazolam and 1 μM diclofenac to determine the metabolic activity of the microsomes as an additional control.
(§2) Samples resulting from liver microsomal incubations were analyzed by LC-MS/MS. Aliquots of the supernatants were injected onto an X-Bridge C18 column (2.1 × 50 mm, 3.5-μm particles) (Waters, Milford, MA), preceded by a SecurityGuard C18 guard column (4.0 × 2.0 mm; Phenomenex Inc.). Separations were accomplished with a gradient of 0.1% acetic acid in water (v/v) versus 0.1% acetic acid in acetonitrile: methanol (75:25, v/v) at a rate of 0.8 mL/min. The eluents were further applied into an equipped API 4000 QTrap mass spectrometer (AB Sciex, Foster City, CA) with electrospray ionization (ESI) interface by two coupled LC-10 AT pumps. Peak area ratios of FTY720-C2 or FTY720-Mitoxy against the C17 sphingosine internal standard were used to determine the amount of parent remaining compared to that at 0 min. The percent of FTY720-C2 or FTY720-Mitoxy remaining was calculated by dividing the peak area ratio obtained at each time point by that obtained at 0 min. The in vitro intrinsic clearance (CLint) was calculated by linear regression of the log percent of compound remaining versus time plots using Microsoft Excel, two independent experiments (n = 2) were performed for each compound and species. Then, the mean and standard deviation (SD), of two values for each condition, were calculated using Microsoft Excel with the “AVERAGE” and “STDEV” functions, respectively.

PP2A = test: Protein phosphatase (PP2A) assay in adrenal glands of treated mice; assay type: in vivo, male C57BL/6 mice; conditions: for increase of PP2A activity in mouse adrenal gland: as compared to untreated controls, route not given; for increase of PP2A activity in adrenal gland: up to 48 hr postdose, vs untreated control mice
Procedure: The objectives of this study were to evaluate the pharmacokinetic profiles of FTY720-C2 and FTY720-Mitoxy following single oral and intravenous (IV) dosing of male mice and to determine blood and tissue levels of both compounds at various postdose time points. Male C57BL/6 mice were 8.4 weeks of age and weighed 20.6–24.8 g on the day of dose administration. Each animal was identified by a unique number via an ear tag with a matching cage tag. Mice were administered (two mice per time point) a single equivalent molar dose of either FTY720-C2 (1 mg/kg) or FTY720-Mitoxy (2 mg/kg) by oral or intravenous administration. As the molecular weight of FTY720-Mitoxy (704.72 g/mol) is ~ two times greater than that of FTY720-C2 (349.51 g/mol), the dose level of FTY720-Mitoxy was double that of FTY720-C2. Details of the design showing group assignments, dose groups, dose levels, as well as blood collection and necropsy time points are shown in Table 2. At the appropriate time points after dosing and blood sample collection for bioanalysis, animals were euthanized by CO2 inhalation until unresponsive, followed by decapitation. Brains were rapidly harvested, rinsed with ice cold saline, blotted dry and bisected along the mid-line. The left and right hemispheres of the brain were weighed separately. Each was placed in separate tubes, immediately flash frozen in liquid nitrogen and stored at -70°C prior to evaluation. All samples were labeled with the test facility study number, animal identification number, dose group, date, collection interval, and tissue identity (left or right brain hemisphere). Adrenal glands from each mouse were also collected and flash frozen.
Adrenal glands from treated mice were homogenized in buffer containing 20 mM imidazole-HCl, 2 mM EDTA, 2 mM EGTA, plus protease inhibitors, at 4°C. The homogenates were centrifuged to remove particulates followed by free phosphate removal on MicrospinTM-G-25 columns (GE Healthcare). Aliquots of supernatants were incubated in 4-Nitrophenyl-phosphate (pNPP) buffer consisting of 50 mM Tris-HCl, pH 7.0, 0.1 mM CaCl2 with threonine-phosphopeptide (KRpTIRR) substrate. The reactions were run for 10 min at 30°C and stopped by placing samples on ice. Phosphate levels were determined by measuring absorbance at 650 nm using a Multiskan Spectrum plate reader (Thermo Scientific, Pittsburgh, PA) and were compared to freshly prepared standards as previously described, but using a malachite green solution prepared according to Fathi et al.. Samples from two mice per time point (n = 2) were assayed in triplicate to confirm technical fidelity.

[2] = Metabolic stability (intrinsic clearance) in monkey liver microsomes; assay type: in vitro ADME, monkey (Cynomolgus); conditions: for percent of the remaining compound: after 60 minute incubation
Procedure: as §1, §2

[3] = Metabolic stability (intrinsic clearance) in dog liver microsomes; assay type: in vitro ADME, dog (Beagle); conditions: for microsomal CLint at 1 μM: Beagle; for percent of the remaining compound: after 60 minute incubation
Procedure: as §1, §2

[4] = Metabolic stability (intrinsic clearance) in human liver microsomes; assay type: in vitro ADME; conditions: for percent of the remaining compound: after 60 minute incubation; for microsomal CLint at 1 μM: pH 7.4, 0.1 mg/mL protein, mean of two determinations
Procedure: as §1, §2

Compound | intrinsic clearance interpreted in words ([1]; mouse liver microsomes) | percent of the remaining compound ([1]; mouse liver microsomes) | increase of PP2A activity in mouse adrenal gland (PP2A) | intrinsic clearance interpreted in words ([2]; monkey liver microsomes) | percent of the remaining compound ([2]; monkey liver microsomes) | intrinsic clearance interpreted in words ([3]; dog liver microsomes) | percent of the remaining compound ([3]; dog liver microsomes) | intrinsic clearance interpreted in words [4] | percent of the remaining compound [4] | microsomal CLint at 1 μM [4] | other results
CCCCCCCCc1ccc(CCC(CO)(CO)NC(C)=O)cc1 [FTY720-C2, N-(1-hydroxy-2-(hydroxymethyl)-4-(4-octylphenyl)butan-2-yl)acetamide] | moderate | 29.5 ± 2.1% | ~ 2 fold | moderate | 30.0 ± 0.3% | low | 69.9 ± 0.6% | moderate | 33.5 ± 4.5% | 18.3 ± 2.4 µL/min/mg | microsomal CLint at 1 μM ([1]; CD-1, pH 7.4, mouse liver microsomes, 0.1 mg/mL protein, 1 μM, mean of two determinations): 22.5 ± 2.12 µL/min/mg; increase of PP2A activity in adrenal gland (PP2A; single IV dose (FTY720-C2 1 mg/kg, FTY720-Mitoxy 2 mg/kg)): 2 fold; microsomal CLint at 1 μM ([2]; pH 7.4, monkey liver microsomes, 0.1 mg/mL protein, 1 μM, mean of two determinations): 20.2 µL/min/mg; microsomal CLint at 1 μM ([3]; pH 7.4, dog liver microsomes, 0.1 mg/mL protein, 1 μM, mean of two determinations): 6 ± 0.28 µL/min/mg
CCCCCCCCc1ccc(CCC(CO)(CO)NC(=O)CC[P+](c2ccccc2)(c2ccccc2)c2ccccc2)cc1 [FTY720-Mitoxy, N-(1-hydroxy-2-(hydroxymethyl)-4-(4-octylphenyl)butan-2-yl)-3’-triphenylphosphoniumpropanamide] | low | 82.5 ± 16.3% | ~ 2 fold | high | 1.4 ± 0.3% | low | 112.5 ± 5.0% | moderate | 35.5 ± 2.3% | 17.5 ± 1.7 µL/min/mg | microsomal CLint at 1 μM ([1]; CD-1, mouse, liver microsomes, pH 7.4, mouse liver microsomes, 0.1 mg/mL protein, 1 μM, mean of two determinations): 1.8 µL/min/mg; Clint (intrinsic clearance) ([1]; mouse liver microsomes, 0.1 mg/mL protein, 1 μM, mean of two determinations): 1.75 ± 1.34 µL/min/mg; increase of PP2A activity in adrenal gland (PP2A; single oral dose (FTY720-C2 1 mg/kg, FTY720-Mitoxy 2 mg/kg)): no stimulating effect; Clint (intrinsic clearance) ([2]; monkey liver microsomes, 0.1 mg/mL protein, 1 μM, mean of two determinations): 135.3 ± 10.61 µL/min/mg; microsomal CLint at 1 μM ([2]; monkey, liver microsomes, pH 7.4, monkey liver microsomes, 0.1 mg/mL protein, 1 μM, mean of two determinations): 135 µL/min/mg; microsomal CLint at 1 μM ([3]; dog, liver microsomes, pH 7.4, dog liver microsomes, 0.1 mg/mL protein, 1 μM, mean of two determinations): 1.4 µL/min/mg; Clint (intrinsic clearance) ([3]; dog liver microsomes, 0.1 mg/mL protein, 1 μM, mean of two determinations): 1.35 ± 1.48 µL/min/mg
